# In patent publication US7951592B2, “Compositions and methods for inducing cell dedifferentiation” (The Scripps Research Institute, priority 2003, dated 2011):
# How the values were obtained:
# [1] = tested on: C2C12 myoblasts cells; details: at the effective concentration (0.5-5 μM)
# Procedure: After four days of treatment with reversine, the compound was removed and cells were then grown in osteogenic differentiation medium (ODM) or adipogenic differentiation medium (ADM).
# [2] = tested on: C2C12 myoblast cells; details: day four of compound treatment
structure (smiles),measurement,setting,value
"c1nc2nc(Nc3ccc(N4CCOCC4)cc3)nc(NC3CCCCC3)c2[nH]1 [Compound A, 2-(4-Morpholinoanilino)-6-cyclohexylamino-purine]",cell death,[1],no significant cell death
same,myotube formation,[2]; 5 μM,completely inhibited
same,myogenic specific markers such as MyoD and myosin,[2],began to disappear
